Measurements from PMC9488896, “Hydroxamic Acid-Modified Peptide Library Provides Insights into the Molecular Basis for the Substrate Selectivity of HDAC Corepressor Complexes” (ACS Chemical Biology, 2022).
Read-outs that look alike come from different tables or passages of the source. Residues, ends and D or L forms follow the SMILES beside them.

Assays:
[1] = molecular target: T1, HDAC1/MTA1(aa: 162–546)/RBBP4 core NuRD complex (HMR) (Homo sapiens, UniProt Q09028+Q13330+Q13547); experiment: Boc-Lys HDAC inhibition assay; type: biochemical; details: 50 nM complex, 100 μM Boc-(Ac)Lys-AMC, 37 °C 30 min, technical replicates N = 2
T1 construct: made in house; host or cells: HEK293F
Method: (§1) Inhibition assays with various peptide inhibitors were performed using a fluorescence-based assay. The inhibitor peptides were initially dissolved in 5% dimethyl sulfoxide (DMSO) at a stock concentration of 25 mM before being further diluted in the HDAC assay buffer (50 mM Tris/HCl, pH 7.5, 150 mM NaCl). Serial dilutions (1:3) of the inhibitor were prepared, starting at a concentration of 500 μM. HDAC complexes were diluted to a final concentration of 50 nM and incubated with the inhibitor for 20 min at rt. The Boc-(Ac)Lys-AMC substrate was added at a final concentration of 100 μM The final volume of the reaction was 50 μL. The reaction was incubated at 37 °C, 150 rpm, for 30 min, before a developer (50 mM Tris, pH 7.5, 100 mM NaCl, 10 mg/mL trypsin) was added. The reaction was incubated with the developer for 10 min before being measured (PerkinElmer, 2030 multilabel reader, VICTOR X5, excitation 335 nm, emission 460 nm). The absorbance of the buffer as the blank control was subtracted from the HDAC activity, and IC50 calculations were performed using the nonlinear regression log(inhibitor) vs response equation Y = bottom + (top – bottom)/(1+10^(X–Log IC50)) in Graphpad Prism 9.

[2] = molecular target: T2, RERE complex (Homo sapiens, UniProt Q13547+Q9P2R6); experiment: Boc-Lys HDAC inhibition assay; type: biochemical; details: HDAC complexes tables; 50 nM complex, 100 μM Boc-(Ac)Lys-AMC, 37 °C 30 min; technical replicates N = 2
T2 construct: made in house; host or cells: HEK293F
Source text: (§2) Finally, we directed our attention toward assessing how the results from the experiments with HMR would be common to the other known class I HDAC corepressor complexes. RERE, MIER1, CoREST, HMR, MiDAC, Sin3A, and SMRT were expressed and purified, and the concentrations were normalized based on the concentration of HDAC1 or HDAC3 (Figure 4A). We determined the potency of H3(23–29)K27Hd 12 and H4(12–18)K16Hd 16 against RERE, MIER1, CoREST, NuRD, MiDAC, Sin3A, and SMRT (Figure 4B). In addition, we repeated the H3(23–29)K27Hd alanine scan experiment for each of these complexes to assess whether or not the importance of Lys23 for maintaining potency against HMR was replicated across the other complexes (Figure 4C).
as §1

[3] = molecular target: T3, CoREST complex (Homo sapiens, UniProt Q13547+Q9UKL0); experiment: Boc-Lys HDAC inhibition assay; type: biochemical; details: HDAC complexes tables; 50 nM complex, 100 μM Boc-(Ac)Lys-AMC, 37 °C 30 min; technical replicates N = 2
T3 construct: made in house; host or cells: HEK293F
Source text: as §2, §1

[4] = molecular target: T4, MiDAC complex (Homo sapiens, UniProt Q13547+Q6PJG2+Q9H147); experiment: Boc-Lys HDAC inhibition assay; type: biochemical; details: HDAC complexes tables; 50 nM complex, 100 μM Boc-(Ac)Lys-AMC, 37 °C 30 min; technical replicates N = 2
T4 construct: made in house; host or cells: HEK293F
Source text: as §2, §1

[5] = molecular target: T5, MIER1 complex (Homo sapiens, UniProt Q13547+Q8N108); experiment: Boc-Lys HDAC inhibition assay; type: biochemical; details: HDAC complexes tables; 50 nM complex, 100 μM Boc-(Ac)Lys-AMC, 37 °C 30 min; technical replicates N = 2
T5 construct: made in house; host or cells: HEK293F
Source text: as §2, §1

[6] = molecular target: T6, SMRT complex (HDAC3) (Homo sapiens, UniProt O15379); experiment: Boc-Lys HDAC inhibition assay; type: biochemical; details: HDAC complexes tables; 50 nM complex, 100 μM Boc-(Ac)Lys-AMC, 37 °C 30 min; technical replicates N = 2
T6 construct: made in house; host or cells: HEK293F
Source text: as §2, §1

[7] = molecular target: T7, Sin3A complex (Homo sapiens, UniProt Q13547); experiment: Boc-Lys HDAC inhibition assay; type: biochemical; details: HDAC complexes tables; 50 nM complex, 100 μM Boc-(Ac)Lys-AMC, 37 °C 30 min; technical replicates N = 2
T7 construct: made in house; host or cells: HEK293F
Source text: as §2, §1

[8] = molecular target: T8, HMR complex (Homo sapiens, UniProt Q09028+Q13330+Q13547); experiment: Fluorescence polarization binding assay; details: 10 nM FTU-labeled peptide, increasing HMR, 30 min rt; one-site binding fit; technical replicates N = 2; read-out: KD of Fluorescein-labelled peptides against HMR
T8 construct: made in house; host or cells: HEK293F
Method: We aimed first to validate the results of the activity assay with the hydroxamic acid-containing peptides in terms of binding kinetics. To this end, we designed and synthesized fluorescein-labeled analogues (FTU) of the key peptides identified from the inhibition assay: FTU-H3(6−12)K9Hd 17, FTU-H3(23–29)K27Hd 18, FTU-H4(8−14)K12Hd 19, and FTU-H4(12−18)K16Hd 20. […] These peptides were then tested in an FP assay to measure their binding affinity for the HMR complex (Figure 2D).
The fluorescence polarization assay was performed using 96-well black plates (Corning). FTU (10 nM)-labeled peptides (peptides 17–20) were incubated with increasing concentrations of HMR for 30 min at rt. The plate was shaken before being read on a Victor X5 Plate reader (Perkin Elmer). […] values were calculated using the nonlinear regression one-site binding equation Y = Bmax × X/(KD + X) using Graphpad Prism 9.

[9] = alanine scan / H4K12Hd experiments, 20 min preincubation rt, read-out: IC50 of HMR against H3 K27Hd, H4 K16Hd and H4K12Hd peptides

T1 sequence (Q13547 whole entry, species assumed): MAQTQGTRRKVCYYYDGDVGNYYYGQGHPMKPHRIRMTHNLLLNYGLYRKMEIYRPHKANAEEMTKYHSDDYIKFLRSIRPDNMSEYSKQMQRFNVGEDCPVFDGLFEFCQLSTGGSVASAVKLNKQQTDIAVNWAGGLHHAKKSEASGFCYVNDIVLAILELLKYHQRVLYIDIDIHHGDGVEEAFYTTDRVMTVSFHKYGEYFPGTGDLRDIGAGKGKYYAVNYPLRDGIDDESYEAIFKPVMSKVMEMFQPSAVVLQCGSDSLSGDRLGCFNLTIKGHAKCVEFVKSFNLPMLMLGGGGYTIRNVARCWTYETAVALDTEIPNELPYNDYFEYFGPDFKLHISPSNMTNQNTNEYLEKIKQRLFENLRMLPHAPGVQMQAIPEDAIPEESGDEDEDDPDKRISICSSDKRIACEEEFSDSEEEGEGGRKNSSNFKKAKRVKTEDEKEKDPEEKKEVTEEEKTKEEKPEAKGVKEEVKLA
T1 sequence (Q13330 162-546 partner limits assumed, species assumed): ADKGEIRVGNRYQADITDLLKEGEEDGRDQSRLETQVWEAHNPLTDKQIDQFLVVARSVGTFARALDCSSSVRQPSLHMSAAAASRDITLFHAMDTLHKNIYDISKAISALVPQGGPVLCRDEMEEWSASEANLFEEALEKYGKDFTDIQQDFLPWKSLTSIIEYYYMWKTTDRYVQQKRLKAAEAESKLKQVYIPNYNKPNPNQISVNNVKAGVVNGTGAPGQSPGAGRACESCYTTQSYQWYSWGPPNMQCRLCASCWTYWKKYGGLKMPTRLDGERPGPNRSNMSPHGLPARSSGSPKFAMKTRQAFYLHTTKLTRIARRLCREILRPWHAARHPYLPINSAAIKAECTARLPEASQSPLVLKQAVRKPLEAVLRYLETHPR
T1 sequence (Q09028 whole entry partner, species assumed): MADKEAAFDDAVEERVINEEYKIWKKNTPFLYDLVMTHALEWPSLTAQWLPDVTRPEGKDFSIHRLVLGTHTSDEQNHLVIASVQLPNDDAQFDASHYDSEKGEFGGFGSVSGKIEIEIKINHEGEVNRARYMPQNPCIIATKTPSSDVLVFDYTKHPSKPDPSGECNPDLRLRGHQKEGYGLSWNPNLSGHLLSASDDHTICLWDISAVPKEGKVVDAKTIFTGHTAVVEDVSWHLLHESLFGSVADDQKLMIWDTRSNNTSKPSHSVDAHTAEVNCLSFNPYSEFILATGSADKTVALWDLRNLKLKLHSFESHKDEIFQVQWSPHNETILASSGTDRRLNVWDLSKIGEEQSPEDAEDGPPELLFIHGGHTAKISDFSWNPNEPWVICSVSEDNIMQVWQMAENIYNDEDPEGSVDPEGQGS
T6 sequence (O15379 whole entry, species assumed, one chain of several): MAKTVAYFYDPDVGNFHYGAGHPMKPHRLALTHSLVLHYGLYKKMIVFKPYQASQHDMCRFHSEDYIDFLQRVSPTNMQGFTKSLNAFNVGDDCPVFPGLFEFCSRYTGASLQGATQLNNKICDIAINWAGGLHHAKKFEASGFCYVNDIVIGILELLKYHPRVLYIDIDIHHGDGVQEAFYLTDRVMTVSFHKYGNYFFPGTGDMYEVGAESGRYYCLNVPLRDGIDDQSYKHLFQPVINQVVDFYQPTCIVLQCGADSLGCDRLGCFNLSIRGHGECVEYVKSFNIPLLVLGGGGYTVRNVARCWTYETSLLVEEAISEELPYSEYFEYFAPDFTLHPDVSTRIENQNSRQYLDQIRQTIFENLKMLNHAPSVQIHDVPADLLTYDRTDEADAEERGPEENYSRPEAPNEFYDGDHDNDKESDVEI
T8 sequence (Q13547 whole entry, species assumed): as the sequence (Q13547 whole entry, species assumed) above
T8 sequence (Q13330 162-546 partner limits assumed, species assumed): as the sequence (Q13330 162-546 partner limits assumed, species assumed) above
T8 sequence (Q09028 whole entry partner, species assumed): as the sequence (Q09028 whole entry partner, species assumed) above
T4 sequence (Q13547 whole entry): as the sequence (Q13547 whole entry, species assumed) above
T4 sequence (Q6PJG2 628-887 partner limits assumed): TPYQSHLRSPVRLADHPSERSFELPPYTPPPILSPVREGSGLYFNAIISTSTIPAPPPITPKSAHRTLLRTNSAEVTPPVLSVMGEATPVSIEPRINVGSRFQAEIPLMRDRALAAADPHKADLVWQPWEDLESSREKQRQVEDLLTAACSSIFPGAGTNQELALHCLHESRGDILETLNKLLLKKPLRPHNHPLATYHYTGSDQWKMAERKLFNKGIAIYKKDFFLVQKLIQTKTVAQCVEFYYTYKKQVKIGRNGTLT
T4 sequence (Q9H147 whole entry partner): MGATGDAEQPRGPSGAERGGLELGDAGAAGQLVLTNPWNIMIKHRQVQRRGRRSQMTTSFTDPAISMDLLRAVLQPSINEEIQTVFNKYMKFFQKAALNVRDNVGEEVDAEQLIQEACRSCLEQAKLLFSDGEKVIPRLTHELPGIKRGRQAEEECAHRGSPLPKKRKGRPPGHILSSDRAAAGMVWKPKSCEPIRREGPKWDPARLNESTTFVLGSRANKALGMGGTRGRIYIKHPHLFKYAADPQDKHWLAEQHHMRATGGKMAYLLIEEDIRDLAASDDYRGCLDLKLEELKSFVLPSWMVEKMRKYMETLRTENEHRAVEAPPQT

IC50 [1, 9] [nM]	IC50 [2] [nM]	IC50 [3] [nM]	IC50 [4] [nM]	IC50 [5] [nM]	IC50 [6] [nM]	IC50 [7] [nM]	IC50 ([1]; HDAC complexes tables, read-out: IC50, HMR (NuRD)) [nM]	IC50 ([1]; inhibitor library experiment, 20 min preincubation rt, fluorescence, read-out: IC50 of HMR against histone peptide library) [nM]	Kd [8] [nM]	SMILES
308	408	234	480	342	379	272				CC(=O)N[C@@H](CCCCN)C(=O)N[C@@H](C)C(=O)N[C@@H](C)C(=O)N[C@@H](CCCNC(=N)N)C(=O)N[C@@H](CCCCCC(=O)NO)C(=O)N[C@@H](C)C(=O)N[C@@H](C)C(N)=O [compound 23, H3 (23-29) K27Hd S28A] (HELM PEPTIDE1{[ac].K.A.A.R.[O=C([C@H](CCCCCC(=O)[*:3])N[*:1])[*:2]].A.A.[am]}|CHEM1{[ON[*:1]]}$PEPTIDE1,CHEM1,6:R3-1:R1$$$V2.0)
133	209		151	106	128	145	50	134	60	CC(=O)N[C@@H](CCCCN)C(=O)N[C@@H](C)C(=O)N[C@@H](C)C(=O)N[C@@H](CCCNC(=N)N)C(=O)N[C@@H](CCCCCC(=O)NO)C(=O)N[C@@H](CO)C(=O)N[C@@H](C)C(N)=O [compound 12, H3(23–29)K27Hd] (HELM PEPTIDE1{[ac].K.A.A.R.[O=C([C@H](CCCCCC(=O)[*:3])N[*:1])[*:2]].S.A.[am]}|CHEM1{[ON[*:1]]}$PEPTIDE1,CHEM1,6:R3-1:R1$$$V2.0)
									288	CC(=O)N[C@@H](CCCCN)C(=O)NCC(=O)N[C@@H](CC(C)C)C(=O)NCC(=O)N[C@@H](CCCCCC(=O)NO)C(=O)NCC(=O)NCC(N)=O [compound 27, H4(8–14)K12Hd] (HELM PEPTIDE1{[ac].K.G.L.G.[O=C([C@H](CCCCCC(=O)[*:3])N[*:1])[*:2]].G.G.[am]}|CHEM1{[ON[*:1]]}$PEPTIDE1,CHEM1,6:R3-1:R1$$$V2.0)
